Publication PMC6409085, “Three odorant-binding proteins are involved in the behavioral response of Sogatella furcifera to rice plant volatiles” (PeerJ, 2019)
“And” between values parts separate entries of the source, which are not always exact repeats. Equal entries are not always repeated. Where two headings read alike, the source gives them in different places.

Tests used:
Test in all cases: biochemical
Type in all cases: binding
SfurOBP1 = SfurOBP1 (Sogatella furcifera, UniProt V5T8N5); details: for Fluorescence competitive binding assay, fluorescence intensity: OBP1, three replicate columns
SfurOBP1, sequence (V5T8N5 entry or part of it): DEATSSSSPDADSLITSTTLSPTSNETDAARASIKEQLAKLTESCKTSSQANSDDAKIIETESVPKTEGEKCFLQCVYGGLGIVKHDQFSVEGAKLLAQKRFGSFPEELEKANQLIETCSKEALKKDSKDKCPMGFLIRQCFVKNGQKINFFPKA
Method in brief: (§1)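 Fluorescence competitive binding used 2.0 µM SfurOBP and 2.0 µM 1-NPN reporter in 50 mM Tris-HCl, pH 7.4, with odorants at 2-20 µM. Fluorescence was read 2 min after adding the odorant (excitation 337 nm, emission 390-490 nm), in triplicate. Ki was calculated from IC50 as IC50/(1 + [1-NPN]/K1-NPN).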

SfurOBP11 = SfurOBP11 (Sogatella furcifera, UniProt V5T6E3)
SfurOBP11, sequence (V5T6E3 entry or part of it): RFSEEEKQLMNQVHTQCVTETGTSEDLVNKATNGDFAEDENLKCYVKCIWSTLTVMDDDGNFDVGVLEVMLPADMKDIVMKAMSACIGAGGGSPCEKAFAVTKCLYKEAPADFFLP
Method in brief: as §1

SfurOBP2 = SfurOBP2 (Sogatella furcifera, UniProt V5T759)
SfurOBP2, sequence (V5T759 entry or part of it): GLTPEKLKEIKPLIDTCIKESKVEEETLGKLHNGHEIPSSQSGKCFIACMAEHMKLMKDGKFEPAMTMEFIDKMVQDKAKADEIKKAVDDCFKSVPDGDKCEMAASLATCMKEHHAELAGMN
Method in brief: as §1

SfurOBP3 = SfurOBP3 (Sogatella furcifera, UniProt V5T818); details: for Fluorescence competitive binding assay, fluorescence intensity: OBP3, three replicate columns
SfurOBP3, sequence (V5T818 entry or part of it): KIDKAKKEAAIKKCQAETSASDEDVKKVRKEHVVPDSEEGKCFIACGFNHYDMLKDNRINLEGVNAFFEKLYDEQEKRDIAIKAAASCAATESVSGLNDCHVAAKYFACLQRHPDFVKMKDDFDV
Method in brief: as §1

For `c1ccc2ccccc2c1` [naphthalene], the IC50 (SfurOBP1) was over 20 µM, the “Fluorescence competitive binding assay, fluorescence intensity” value (SfurOBP1; ligand concentration 2 (μM)) was 5483 and 5608 and 5501 and the “Fluorescence competitive binding assay, fluorescence intensity” value (SfurOBP1; ligand concentration 4 (μM)) was 5830 and 5745 and 5659. The “Fluorescence competitive binding assay, fluorescence intensity” value (SfurOBP1; ligand concentration 6 (μM)) was 5799 and 5826 and 5942, the “Fluorescence competitive binding assay, fluorescence intensity” value (SfurOBP1; ligand concentration 8 (μM)) was 6002 and 5983 and 5964 and the “Fluorescence competitive binding assay, fluorescence intensity” value (SfurOBP1; ligand concentration 10 (μM)) was 5834 and 6388 and 6102. The “Fluorescence competitive binding assay, fluorescence intensity” value (SfurOBP1; ligand concentration 12 (μM)) was 6285 and 6121 and 6209, the “Fluorescence competitive binding assay, fluorescence intensity” value (SfurOBP1; ligand concentration 14 (μM)) was 6231 and 6194 and 6297 and the “Fluorescence competitive binding assay, fluorescence intensity” value (SfurOBP1; ligand concentration 16 (μM)) was 6398 and 6743 and 6035. The “Fluorescence competitive binding assay, fluorescence intensity” value (SfurOBP1; ligand concentration 18 (μM)) was 6548 and 7178 and 7195, the “Fluorescence competitive binding assay, fluorescence intensity” value (SfurOBP1; ligand concentration 20 (μM)) was 7389 and 7177 and 6994 and the IC50 (SfurOBP11) was over 20 µM. The “Fluorescence intensity, fluorescence competitive binding assay, OBP11” value (“Fluorescence intensity … OBP11” below) (SfurOBP11; ligand concentration 2, replicate 1) was 34403, the “Fluorescence intensity … OBP11” value (SfurOBP11; ligand concentration 2, replicate 2) was 32473 and the “Fluorescence intensity … OBP11” value (SfurOBP11; ligand concentration 2, replicate 3) was 34898. For the same molecule, the “Fluorescence intensity … OBP11” value (SfurOBP11; ligand concentration 4, replicate 1) was 34130, the “Fluorescence intensity … OBP11” value (SfurOBP11; ligand concentration 4, replicate 2) was 34738 and the “Fluorescence intensity … OBP11” value (SfurOBP11; ligand concentration 4, replicate 3) was 32492. The “Fluorescence intensity … OBP11” value (SfurOBP11; ligand concentration 6, replicate 1) was 35498, the “Fluorescence intensity … OBP11” value (SfurOBP11; ligand concentration 6, replicate 2) was 33550 and the “Fluorescence intensity … OBP11” value (SfurOBP11; ligand concentration 6, replicate 3) was 32552. The “Fluorescence intensity … OBP11” value (SfurOBP11; ligand concentration 8, replicate 1) was 32155, the “Fluorescence intensity … OBP11” value (SfurOBP11; ligand concentration 8, replicate 2) was 35048 and the “Fluorescence intensity … OBP11” value (SfurOBP11; ligand concentration 8, replicate 3) was 30051. For the same molecule, the “Fluorescence intensity … OBP11” value (SfurOBP11; ligand concentration 10, replicate 1) was 30839, the “Fluorescence intensity … OBP11” value (SfurOBP11; ligand concentration 10, replicate 2) was 29352 and the “Fluorescence intensity … OBP11” value (SfurOBP11; ligand concentration 10, replicate 3) was 29736. For the same molecule, the “Fluorescence intensity … OBP11” value (SfurOBP11; ligand concentration 12, replicate 1) was 30215, the “Fluorescence intensity … OBP11” value (SfurOBP11; ligand concentration 12, replicate 2) was 28382 and the “Fluorescence intensity … OBP11” value (SfurOBP11; ligand concentration 12, replicate 3) was 27824. For the same molecule, the “Fluorescence intensity … OBP11” value (SfurOBP11; ligand concentration 14, replicate 1) was 26586, the “Fluorescence intensity … OBP11” value (SfurOBP11; ligand concentration 14, replicate 2) was 26869 and the “Fluorescence intensity … OBP11” value (SfurOBP11; ligand concentration 14, replicate 3) was 27309. For the same molecule, the “Fluorescence intensity … OBP11” value (SfurOBP11; ligand concentration 16, replicate 1) was 25698, the “Fluorescence intensity … OBP11” value (SfurOBP11; ligand concentration 16, replicate 2) was 25045 and the “Fluorescence intensity … OBP11” value (SfurOBP11; ligand concentration 16, replicate 3) was 25361. The “Fluorescence intensity … OBP11” value (SfurOBP11; ligand concentration 18, replicate 1) was 25004, the “Fluorescence intensity … OBP11” value (SfurOBP11; ligand concentration 18, replicate 2) was 25141 and the “Fluorescence intensity … OBP11” value (SfurOBP11; ligand concentration 18, replicate 3) was 24946. The “Fluorescence intensity … OBP11” value (SfurOBP11; ligand concentration 20, replicate 1) was 23792, the “Fluorescence intensity … OBP11” value (SfurOBP11; ligand concentration 20, replicate 2) was 23804 and the “Fluorescence intensity … OBP11” value (SfurOBP11; ligand concentration 20, replicate 3) was 23815. The IC50 (SfurOBP2) was over 20 µM, the “Fluorescence competitive binding assay, OBP2 (raw fluorescence reading)” value (SfurOBP2; ligand concentration 2 (unit not given), replicate column 1 of 3) was 21005 and the “Fluorescence competitive binding assay, OBP2 (raw fluorescence reading)” value (SfurOBP2; ligand concentration 2 (unit not given), replicate column 2 of 3) was 21502. For the same molecule, the “Fluorescence competitive binding assay, OBP2 (raw fluorescence reading)” value (SfurOBP2; ligand concentration 2 (unit not given), replicate column 3 of 3) was 19080, the “Fluorescence competitive binding assay, OBP2 (raw fluorescence reading)” value (SfurOBP2; ligand concentration 4 (unit not given), replicate column 1 of 3) was 24365 and the “Fluorescence competitive binding assay, OBP2 (raw fluorescence reading)” value (SfurOBP2; ligand concentration 4 (unit not given), replicate column 2 of 3) was 22710. For the same molecule, the “Fluorescence competitive binding assay, OBP2 (raw fluorescence reading)” value (SfurOBP2; ligand concentration 4 (unit not given), replicate column 3 of 3) was 24844, the “Fluorescence competitive binding assay, OBP2 (raw fluorescence reading)” value (SfurOBP2; ligand concentration 6 (unit not given), replicate column 1 of 3) was 22191 and the “Fluorescence competitive binding assay, OBP2 (raw fluorescence reading)” value (SfurOBP2; ligand concentration 6 (unit not given), replicate column 2 of 3) was 22417. The “Fluorescence competitive binding assay, OBP2 (raw fluorescence reading)” value (SfurOBP2; ligand concentration 6 (unit not given), replicate column 3 of 3) was 22519, the “Fluorescence competitive binding assay, OBP2 (raw fluorescence reading)” value (SfurOBP2; ligand concentration 8 (unit not given), replicate column 1 of 3) was 23158 and the “Fluorescence competitive binding assay, OBP2 (raw fluorescence reading)” value (SfurOBP2; ligand concentration 8 (unit not given), replicate column 2 of 3) was 21663. For the same molecule, the “Fluorescence competitive binding assay, OBP2 (raw fluorescence reading)” value (SfurOBP2; ligand concentration 8 (unit not given), replicate column 3 of 3) was 20781, the “Fluorescence competitive binding assay, OBP2 (raw fluorescence reading)” value (SfurOBP2; ligand concentration 10 (unit not given), replicate column 1 of 3) was 20596 and the “Fluorescence competitive binding assay, OBP2 (raw fluorescence reading)” value (SfurOBP2; ligand concentration 10 (unit not given), replicate column 2 of 3) was 20292. The “Fluorescence competitive binding assay, OBP2 (raw fluorescence reading)” value (SfurOBP2; ligand concentration 10 (unit not given), replicate column 3 of 3) was 20233, the “Fluorescence competitive binding assay, OBP2 (raw fluorescence reading)” value (SfurOBP2; ligand concentration 12 (unit not given), replicate column 1 of 3) was 19697 and the “Fluorescence competitive binding assay, OBP2 (raw fluorescence reading)” value (SfurOBP2; ligand concentration 12 (unit not given), replicate column 2 of 3) was 18134. For the same molecule, the “Fluorescence competitive binding assay, OBP2 (raw fluorescence reading)” value (SfurOBP2; ligand concentration 12 (unit not given), replicate column 3 of 3) was 19454, the “Fluorescence competitive binding assay, OBP2 (raw fluorescence reading)” value (SfurOBP2; ligand concentration 14 (unit not given), replicate column 1 of 3) was 17572 and the “Fluorescence competitive binding assay, OBP2 (raw fluorescence reading)” value (SfurOBP2; ligand concentration 14 (unit not given), replicate column 2 of 3) was 18013. For the same molecule, the “Fluorescence competitive binding assay, OBP2 (raw fluorescence reading)” value (SfurOBP2; ligand concentration 14 (unit not given), replicate column 3 of 3) was 17420, the “Fluorescence competitive binding assay, OBP2 (raw fluorescence reading)” value (SfurOBP2; ligand concentration 16 (unit not given), replicate column 1 of 3) was 16408 and the “Fluorescence competitive binding assay, OBP2 (raw fluorescence reading)” value (SfurOBP2; ligand concentration 16 (unit not given), replicate column 2 of 3) was 15544. The “Fluorescence competitive binding assay, OBP2 (raw fluorescence reading)” value (SfurOBP2; ligand concentration 16 (unit not given), replicate column 3 of 3) was 15169, the “Fluorescence competitive binding assay, OBP2 (raw fluorescence reading)” value (SfurOBP2; ligand concentration 18 (unit not given), replicate column 1 of 3) was 18334 and the “Fluorescence competitive binding assay, OBP2 (raw fluorescence reading)” value (SfurOBP2; ligand concentration 18 (unit not given), replicate column 2 of 3) was 23371. The “Fluorescence competitive binding assay, OBP2 (raw fluorescence reading)” value (SfurOBP2; ligand concentration 18 (unit not given), replicate column 3 of 3) was 18960, the “Fluorescence competitive binding assay, OBP2 (raw fluorescence reading)” value (SfurOBP2; ligand concentration 20 (unit not given), replicate column 1 of 3) was 17296 and the “Fluorescence competitive binding assay, OBP2 (raw fluorescence reading)” value (SfurOBP2; ligand concentration 20 (unit not given), replicate column 2 of 3) was 16882. The “Fluorescence competitive binding assay, OBP2 (raw fluorescence reading)” value (SfurOBP2; ligand concentration 20 (unit not given), replicate column 3 of 3) was 15413, the IC50 (SfurOBP3) was over 20 µM and the “Fluorescence competitive binding assay, fluorescence intensity” value (SfurOBP3; ligand concentration 2) was 99229 and 86961 and 92264. The “Fluorescence competitive binding assay, fluorescence intensity” value (SfurOBP3; ligand concentration 4) was 97193 and 95605 and 87600, the “Fluorescence competitive binding assay, fluorescence intensity” value (SfurOBP3; ligand concentration 6) was 102900 and 102445 and 98166 and the “Fluorescence competitive binding assay, fluorescence intensity” value (SfurOBP3; ligand concentration 8) was 100522 and 107674 and 104095. The “Fluorescence competitive binding assay, fluorescence intensity” value (SfurOBP3; ligand concentration 10) was 49630 and 50618 and 48648, the “Fluorescence competitive binding assay, fluorescence intensity” value (SfurOBP3; ligand concentration 12) was 46251 and 47333 and 45186 and the “Fluorescence competitive binding assay, fluorescence intensity” value (SfurOBP3; ligand concentration 14) was 39681 and 44579 and 42492. For the same molecule, the “Fluorescence competitive binding assay, fluorescence intensity” value (SfurOBP3; ligand concentration 16) was 42940 and 41521 and 40287, the “Fluorescence competitive binding assay, fluorescence intensity” value (SfurOBP3; ligand concentration 18) was 51522 and 51973 and 51748 and the “Fluorescence competitive binding assay, fluorescence intensity” value (SfurOBP3; ligand concentration 20) was 50731 and 60428 and 55580.

`CC(C)COC(=O)CCCCC(=O)OCC(C)C` [diisobutyl adipate] showed an IC50 (SfurOBP1; SfurOBP1, protein and 1-NPN both 2.0 µM, competitor 2-20 µM, read-out: IC50) of over 20 µM, an IC50 (SfurOBP11; SfurOBP11, protein and 1-NPN both 2.0 µM, competitor 2-20 µM, read-out: IC50) of over 20 µM and an IC50 (SfurOBP2; SfurOBP2, protein and 1-NPN both 2.0 µM, competitor 2-20 µM, read-out: IC50) of over 20 µM. For the same molecule, the IC50 (SfurOBP3; SfurOBP3, protein and 1-NPN both 2.0 µM, competitor 2-20 µM, read-out: IC50) was over 20 µM.
